Structures are written as SMILES.

Series [1] is described as follows: Solubility from absorbance of a filtered over-saturated dye sample. It counts as physicochemical. The note with it: concentration extrapolated via calibration curve and Beer Lambert Law. How it is done:
(§1) a) Dye mixtures using the novel dyes are prepared to obtain neutral black samples that can be used in EWD. b) Solubility is measured by filtering an over-saturated sample of dissolved dye, measuring the resulting absorbance value, and extrapolating the concentration using a calibration curve and Beer Lambert Law (Absorbance=∈cl, where ∈ is the extinction coefficient of the material, calculated from a calibration curve, c is concentration, and l is the path length of the measurement). c) The absorbance is measured using a Hitachi U3310 spectrophotometer with a 5 micron path length under a single pass transmission measurement condition. d) The impact of the dye on the electrical properties is measured by comparing the dielectric constant of a series of formulations with increasing dye content. There is a linear relationship between dye concentration and dielectric constant, the gradient of which is indicative of the polarisability of the dye. This gradient value is denoted as an ‘alpha value’. A low alpha value indicates a smaller change in dielectric constant as dye concentration increases, and is desirable. High alpha values indicate that the dye has a large impact on the dielectric constant of the solvent, which will likely have a negative impact on the behaviour of the fluid in an electrowetting display pixel.

A short description of series [2]: Extinction coefficient from calibration curve. It counts as physicochemical. The note with it: extinction coefficient calculated from calibration curve.
Series [3] can be described thus: Alpha value: gradient of dielectric constant against dye concentration (polarisability). It counts as physicochemical. The note with it: gradient of dielectric constant vs dye concentration; low value desirable. How it is done: as §1

`CCCCCCCCCCCCCC1(C)Nc2cccc3c(/N=N/c4ccc(/N=N/c5ccc(CCCC)cc5)c5ccccc45)ccc(c23)N1` (stereo not shown) [Dye 1, 6-((E)-(4-((E)-(4-Butylphenyl)diazenyl)naphthalen-1-yl)diazenyl)-2-methyl-2-tridecyl-2,3-dihydro-1H-perimidine] displayed a melting point of 79 to 81 °C. The Solubility % in series [1] was 0.22%.
With `CCCCCCCCCCCCCC1(C)N(CCCCCCCC)c2cccc3c(/N=N/c4ccc(/N=N/c5ccc(CCCC)cc5)c5ccccc45)ccc(c23)N1CCCCCCCC` (stereo not shown) [Dye 2, 6-((E)-(4-((E)-(4-butylphenyl)diazenyl)naphthalen-1-yl)diazenyl)-2-methyl-1,3-dioctyl-2-tridecyl-2,3-dihydro-1H-perimidine], the εmax in series [2] was 40107. Besides, in series [1], the Solubility % is reported as 19.53%. In series [3], this molecule showed an Alpha value of 2.9360.
For `CCCCc1ccc(/N=N/c2cc(OCC(CC)CCCC)c(/N=N/c3ccc(N(CC(CC)CCCC)CC(CC)CCCC)cc3C)cc2C)cc1` (stereo not shown) [Dye 14, 4-((E)-(4-((E)-(4-butylphenyl)diazenyl)-2-(2-ethylhexyloxy)-5-methylphenyl)diazenyl)-N,N-bis(2-ethylhexyl)-3-methylaniline], the εmax in series [2] was 38954. In addition, the Solubility % in series [1] is 28.66%.

The melting point is the temperature of the solid-liquid transition.

Source of the values: patent US20150355456A1, “ELECTROWETTING FLUIDS” (MERCK PATENT GMBH, priority 2013, published 2015).
